In the Kinase Knowledgebase extract (Sharma et al. 2016):

Each compound was assayed against MAPK14 (human) (UniProt Q16539) (assay: Inhibition of MAPK14 Kinase Activity).
MAPK14 (human), sequence (Q16539 whole entry, looked up): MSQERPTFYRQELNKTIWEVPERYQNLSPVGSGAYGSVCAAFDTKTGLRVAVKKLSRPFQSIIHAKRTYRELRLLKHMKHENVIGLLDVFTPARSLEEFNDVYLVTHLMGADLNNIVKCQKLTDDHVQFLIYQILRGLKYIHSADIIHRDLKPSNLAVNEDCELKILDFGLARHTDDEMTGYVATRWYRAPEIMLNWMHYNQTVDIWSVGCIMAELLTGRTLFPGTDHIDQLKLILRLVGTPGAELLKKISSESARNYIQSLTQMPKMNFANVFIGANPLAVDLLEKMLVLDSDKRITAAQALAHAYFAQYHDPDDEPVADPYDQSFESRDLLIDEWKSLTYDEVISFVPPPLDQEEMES

Row | IC50 [nM] | SMILES
1 | ≤ 1000 | CC(C)NC(=O)c1csc(-c2oc(CNC(=O)c3ccc(Oc4cccc(O)c4)cc3)nc2-c2ccc(F)cc2)n1
2 | ≤ 1000 | CC(C)NC(=O)c1csc(-c2c(-c3ccc(F)cc3)noc2CN(C)CCO)n1
3 | ≤ 1000 | CC(C)NC(=O)c1csc(-c2oc(CNC(=O)c3ccncc3Cl)nc2-c2ccc(F)cc2)n1
4 | ≤ 1000 | O=C(NC1CCC1)c1csc(-c2c(-c3ccc(F)cc3)n[nH]c2C2CCNCC2)n1
5 | ≤ 1000 | Cc1nc(-c2ccc(F)cc2)c(-c2nc(C(=O)NCc3ccc(Cl)cc3Cl)cs2)s1
6 | ≤ 1000 | O=C(NCc1cccnc1)c1csc(-c2c(-c3ccc(F)cc3)n[nH]c2C2CCN(C(=O)CO)CC2)n1
7 | ≤ 1000 | COCC(=O)N1CCC(c2[nH]nc(-c3ccc(F)cc3)c2-c2nc(C(=O)NC(C)C)cs2)CC1
8 | ≤ 1000 | Cc1cccc(C(=O)NCc2nc(-c3ccc(F)cc3)c(-c3nc(C(=O)NC(C)C)cs3)o2)c1[N+](=O)[O-]
9 | ≤ 1000 | Cc1nc(-c2ccc(F)cc2)c(-c2nc(C(=O)NCC#N)cs2)s1
10 | ≤ 1000 | CC(=O)N1CCN(Cc2nc(-c3ccc(F)cc3)c(-c3nc(C(=O)NC(C)C)cs3)o2)CC1
11 | ≤ 1000 | Cc1nc(-c2ccc(F)cc2)c(-c2nc(C(=O)N3CCCC3CO)cs2)s1 (stereo not given)
12 | ≤ 1000 | Cc1nc(-c2ccc(F)cc2)c(-c2nc(C(=O)NC(C)C)cs2)s1
13 | ≤ 1000 | Cc1nc(-c2ccc(F)cc2)c(-c2nc(C(=O)NCCO)cs2)s1
14 | ≤ 1000 | CC(=O)Oc1cccc(C(=O)N2CCN(Cc3nc(-c4ccc(F)cc4)c(-c4nc(C(=O)NC(C)C)cs4)o3)CC2)c1
15 | ≤ 1000 | CC(C)NC(=O)c1csc(-c2oc(CN3CCN(C(=O)c4cccc(Cl)c4[N+](=O)[O-])CC3)nc2-c2ccc(F)cc2)n1
16 | ≤ 1000 | CC(C)NC(=O)c1csc(-c2c(-c3ccc(F)cc3)noc2CNC(=O)Cc2cccc(O)c2)n1
17 | ≤ 1000 | CC(C)NC(=O)c1csc(-c2[nH]c(CO)nc2-c2ccc(F)cc2)n1
18 | ≤ 1000 | CC(C)NC(=O)c1csc(-c2oc(CN3CCN(C(=O)c4cccc(O)c4O)CC3)nc2-c2ccc(F)cc2)n1
19 | ≤ 1000 | Cc1nc(-c2ccc(F)cc2)c(-c2nc(C(=O)NCc3ccc(Cl)cc3)cs2)s1
20 | ≤ 1000 | Cc1nc(-c2ccc(F)cc2)c(-c2nc(C(=O)N[C@H](C)c3ccccc3)cs2)s1
21 | ≤ 1000 | CC(C)NC(=O)c1csc(-c2oc(CNC(=O)C=Cc3cccc(O)c3)nc2-c2ccc(F)cc2)n1
22 | ≤ 1000 | Cc1nc(-c2ccc(F)cc2)c(-c2nc(C(=O)NCCc3ccc(S(N)(=O)=O)cc3)cs2)s1
23 | ≤ 1000 | COc1ccc(C(=O)N2CCN(Cc3nc(-c4ccc(F)cc4)c(-c4nc(C(=O)NC(C)C)cs4)o3)CC2)c(O)c1

Row | IC50 [nM] | SMILES
24 | ≤ 1000 | COc1cc(C(=O)N2CCN(Cc3nc(-c4ccc(F)cc4)c(-c4nc(C(=O)NC(C)C)cs4)o3)CC2)cc(OC)c1O
25 | ≤ 1000 | CC(C)NC(=O)c1csc(-c2oc(CNC(=O)c3ccncc3)nc2-c2ccc(F)cc2)n1
26 | ≤ 1000 | Cc1nc(-c2ccc(F)cc2)c(-c2nc(C(=O)NCc3cccc(Cl)c3)cs2)s1
27 | ≤ 1000 | CC(C)NC(=O)c1csc(-c2oc(CNC(=O)c3c(Cl)cc(Cl)cc3Cl)nc2-c2ccc(F)cc2)n1
28 | ≤ 1000 | CCCCCCCC(=O)NCc1nc(-c2ccc(F)cc2)c(-c2nc(C(=O)NC(C)C)cs2)o1
29 | ≤ 1000 | CC(C)NC(=O)c1csc(-c2oc(CNC(=O)c3ccc(C(F)(F)F)cc3[N+](=O)[O-])nc2-c2ccc(F)cc2)n1
30 | ≤ 1000 | CC(CC(=O)N1CCN(Cc2nc(-c3ccc(F)cc3)c(-c3nc(C(=O)NC(C)C)cs3)o2)CC1)CC(C)(C)C (stereo not given)
31 | ≤ 1000 | Cc1onc(-c2ccc(Cl)cc2)c1-c1ccn(C(=O)NC2CCCCC2)n1
32 | ≤ 1000 | CC(C)NC(=O)c1csc(-c2oc(CNC(=O)c3cc(Br)ccc3Cl)nc2-c2ccc(F)cc2)n1
33 | ≤ 1000 | CC(C)NC(=O)c1csc(-c2c(-c3ccc(F)cc3)noc2CNC(=O)CC#N)n1
34 | ≤ 1000 | Cc1nc(-c2ccc(F)cc2)c(-c2nc(C(=O)NCCCO)cs2)s1
35 | ≤ 1000 | Cc1nc(-c2ccc(F)cc2)c(-c2nc(C(=O)NCc3ccc(F)cc3)cs2)s1
36 | ≤ 1000 | Cc1nc(Br)sc1C(=O)NCc1nc(-c2ccc(F)cc2)c(-c2nc(C(=O)NC(C)C)cs2)o1
37 | ≤ 1000 | COc1ccc(-c2ccccc2)cc1NCc1onc(-c2ccc(F)cc2)c1-c1nc(C(=O)NC(C)C)cs1
38 | ≤ 1000 | COc1ccccc1CNC(=O)c1csc(-c2sc(C)nc2-c2ccc(F)cc2)n1
39 | ≤ 1000 | CC(C)NC(=O)c1csc(-c2c(-c3ccc(F)cc3)n[nH]c2C2CCN(C(=O)CCc3nc4ccccc4[nH]3)CC2)n1
40 | ≤ 1000 | CC(C)NC(=O)c1csc(-c2oc(CNC(=O)c3cccc(O)c3O)nc2-c2ccc(F)cc2)n1
41 | ≤ 1000 | CC(C)NC(=O)c1csc(-c2oc(CNC(=O)C(C)O)nc2-c2ccc(F)cc2)n1 (stereo not given)
42 | ≤ 1000 | Cc1onc(-c2ccc(Cl)cc2)c1-c1ccn(C(=O)NCC(C)C)n1
43 | ≤ 1000 | CCCN(C)Cc1onc(-c2ccc(F)cc2)c1-c1nc(C(=O)NC(C)C)cs1
44 | ≤ 1000 | CC(C)Cc1ccc(C(C)C(=O)N2CCN(Cc3nc(-c4ccc(F)cc4)c(-c4nc(C(=O)NC(C)C)cs4)o3)CC2)cc1 (stereo not given)
45 | ≤ 1000 | CC(=O)N1CCC(n2cnc(-c3ccc(F)cc3)c2-c2nc(C(=O)NC(C)C)cs2)CC1
46 | ≤ 1000 | CC(C)NC(=O)c1csc(-c2oc(CN(C)C)nc2-c2ccc(F)cc2)n1

Row | IC50 [nM] | SMILES
47 | ≤ 1000 | CC(C)NC(=O)c1csc(-c2oc(CN3CCN(C(=O)c4ncc[nH]4)CC3)nc2-c2ccc(F)cc2)n1
48 | ≤ 1000 | CC(C)NC(=O)c1csc(-c2oc(CNC(=O)C3CCCO3)nc2-c2ccc(F)cc2)n1 (stereo not given)
49 | ≤ 1000 | CC(C)NC(=O)c1csc(-c2c(-c3ccc(F)cc3)n[nH]c2C2CCN(C(=O)c3ccccc3)CC2)n1
50 | ≤ 1000 | CC(=O)c1ccc(C(=O)NCc2nc(-c3ccc(F)cc3)c(-c3nc(C(=O)NC(C)C)cs3)o2)cc1
51 | ≤ 1000 | CNC(=O)c1csc(-c2sc(C)nc2-c2ccc(F)cc2)n1
52 | ≤ 1000 | CC(C)NC(=O)c1csc(-c2c(-c3ccc(F)cc3)n[nH]c2C2CCN(C(=O)C=O)CC2)n1
53 | ≤ 1000 | COc1cccc(CNC(=O)c2csc(-c3sc(C)nc3-c3ccc(F)cc3)n2)c1
54 | ≤ 1000 | COc1ccccc1C=CC(=O)N1CCN(Cc2nc(-c3ccc(F)cc3)c(-c3nc(C(=O)NC(C)C)cs3)o2)CC1
55 | ≤ 1000 | Cc1cc(C)c(C(=O)N2CCN(Cc3nc(-c4ccc(F)cc4)c(-c4nc(C(=O)NC(C)C)cs4)o3)CC2)c(C)c1
56 | ≤ 1000 | O=C(NCCCO)c1csc(-c2c(-c3ccc(F)cc3)n[nH]c2C2CCNCC2)n1
57 | ≤ 1000 | CC(C)NC(=O)c1csc(-c2c(-c3ccc(F)cc3)noc2CNC(=O)C(F)(F)F)n1
58 | ≤ 1000 | CC(C)NC(=O)c1csc(-c2c(-c3ccc(F)cc3)n[nH]c2C2CCN(C(=O)c3ccccn3)CC2)n1
59 | ≤ 1000 | C#CCNC(=O)c1csc(-c2c(-c3ccc(F)cc3)ncn2C2CCNCC2)n1
60 | ≤ 1000 | CC(C)NC(=O)c1csc(-c2[nH]c(CN3CCNCC3)nc2-c2ccc(F)cc2)n1
61 | ≤ 1000 | CC(C)NC(=O)n1ccc(-c2c(-c3ccc(F)cc3)noc2CN2CCOCC2)n1
62 | ≤ 1000 | CC(C)NC(=O)c1csc(-c2oc(CNC(=O)c3ccccc3C(F)(F)F)nc2-c2ccc(F)cc2)n1
63 | ≤ 1000 | COCCNC(=O)c1csc(-c2c(-c3ccc(F)cc3)n[nH]c2C2CCNCC2)n1
64 | ≤ 1000 | CC(C)NC(=O)c1csc(-c2oc(CN3CCN(C(=O)C4CCc5ccccc5C4)CC3)nc2-c2ccc(F)cc2)n1 (stereo not given)
65 | ≤ 1000 | CC(C)NC(=O)c1csc(-c2oc(CNC(=O)c3c4ccccc4cc4ccccc34)nc2-c2ccc(F)cc2)n1
66 | ≤ 1000 | CCOC(=O)CC(C)NC(=O)c1csc(-c2sc(C)nc2-c2ccc(F)cc2)n1 (stereo not given)
67 | ≤ 1000 | COc1cccc(OC)c1C(=O)NCc1nc(-c2ccc(F)cc2)c(-c2nc(C(=O)NC(C)C)cs2)o1
68 | ≤ 1000 | Cc1nc(-c2ccc(F)cc2)c(-c2nc(C(=O)NC3CCC(C)CC3)cs2)s1 (stereo not given)
69 | ≤ 1000 | COc1cc(CNC(=O)c2csc(-c3sc(C)nc3-c3ccc(F)cc3)n2)cc(OC)c1

Row | IC50 [nM] | SMILES
70 | ≤ 1000 | COc1cc(C(=O)NCc2nc(-c3ccc(F)cc3)c(-c3nc(C(=O)NC(C)C)cs3)o2)cc(OC)c1O
71 | ≤ 1000 | Cc1nc(-c2ccc(F)cc2)c(-c2nc(C(=O)NCCCCO)cs2)s1
72 | ≤ 1000 | CC(C)NC(=O)c1csc(-c2c(-c3ccc(F)cc3)n[nH]c2C2CCN(C(=O)c3cccnc3)CC2)n1
73 | ≤ 1000 | CC(C)NC(=O)c1csc(-c2c(-c3ccc(F)cc3)n[nH]c2C2CCN(C(=O)CC#N)CC2)n1
74 | ≤ 1000 | CC(C)NC(=O)c1csc(-c2oc(CNC(=O)c3ccc4cccc(O)c4n3)nc2-c2ccc(F)cc2)n1
75 | ≤ 1000 | CC(C)NC(=O)c1csc(-c2oc(CNC(=O)c3ccc(O)cc3O)nc2-c2ccc(F)cc2)n1
76 | ≤ 1000 | Cc1nc(-c2ccc(F)cc2)c(-c2nc(C(=O)NCC3(O)CCCCC3)cs2)s1
77 | ≤ 1000 | CC(C)NC(=O)c1csc(-c2oc(CN3CCN(C(=O)C4CCCN4C(=O)OC(C)(C)C)CC3)nc2-c2ccc(F)cc2)n1 (stereo not given)
78 | ≤ 1000 | CC(C)NC(=O)c1csc(-c2oc(CNC(=O)c3cc4ccccc4s3)nc2-c2ccc(F)cc2)n1
79 | ≤ 1000 | Cc1nc(-c2ccc(F)cc2)c(-c2nc(C(=O)Nc3ccc4c(c3)OCCO4)cs2)s1
80 | ≤ 1000 | CC(C)NC(=O)c1csc(-c2c(-c3ccc(F)cc3)n[nH]c2C2CCN(C(=O)c3cccc(O)c3)CC2)n1
81 | ≤ 1000 | Cc1nc(-c2ccc(F)cc2)c(-c2nc(C(=O)NCc3ccccc3F)cs2)s1
82 | ≤ 1000 | Cc1nc(-c2ccc(F)cc2)c(-c2nc(C(=O)NCCCn3ccnc3)cs2)s1
83 | ≤ 1000 | CC(C)NC(=O)c1csc(-c2oc(CN3CCN(C(=O)Cc4ccc(C(F)(F)F)cc4)CC3)nc2-c2ccc(F)cc2)n1
84 | ≤ 1000 | Cc1nc(-c2ccc(F)cc2)c(-c2nc(C(=O)NCCc3ccccc3Cl)cs2)s1
85 | ≤ 1000 | Cc1onc(-c2ccc(F)cc2Cl)c1-c1ccn(C(=O)NC(C)C)n1
86 | ≤ 1000 | COc1ccc(CNC(=O)c2csc(-c3c(-c4ccc(F)cc4)n[nH]c3C3CCNCC3)n2)cc1
87 | ≤ 1000 | Cc1nc(-c2ccc(F)cc2)c(-c2nc(C(=O)NCCCN3CCCC3=O)cs2)s1
88 | ≤ 1000 | CC(C)NC(=O)c1csc(-c2oc(CNC(=O)c3ccc(Cl)nc3)nc2-c2ccc(F)cc2)n1
89 | ≤ 1000 | CC(C)NC(=O)c1csc(-c2c(-c3ccc(F)cc3)noc2CN2CCNCC2)n1
90 | ≤ 1000 | Cc1[nH]nc(-c2ccc(F)cc2)c1-c1nc(C(=O)NCc2ccccn2)cs1
